In brackets after ≈: the same amount, converted by molar mass. Read-outs that look alike come from different tables or passages of the source. Non-standard residues stand in square brackets, D forms with d. Residues, ends and D or L forms follow the SMILES beside them.
Legend:
[1] = tested on: E. coli ΔtolA JW0729-KC; format: cell-based, Escherichia coli; settings: Mueller-Hinton broth, 256 to 2 μg/mL, 37°C, 18 h
Experimental: (§1) MIC for all test peptides was determined following EUCAST clinical standard ([Hasselmann, 2003]). Briefly, 3–4 colonies were picked by a cotton swab from freshly plated cultures on agar and resuspended in sterile saline solution. Turbidity of inoculum was adjusted to 0.5 McFarland standard units prior to ×100 dilution in Mueller-Hinton broth. Antimicrobial peptides were dissolved in the broth at the stock concentration of 512 μg/mL. […] Positive control of bacterial culture diluted with broth and negative control of blank broth were included for each bacterial strain. The MICs were determined after incubation of the plates at 37°C for 18 h and red as the concentration of antimicrobial peptide at the next to the last well where bacterial growth was detected.

[2] = tested on: K. pneumoniae K47-25; format: cell-based, Klebsiella pneumoniae
Experimental: as §1

[3] = tested on: A. baumannii K47-42; format: cell-based, Acinetobacter baumannii
Experimental: as §1

[4] = tested on: P. aeruginosa K34-7; format: cell-based, Pseudomonas aeruginosa
Experimental: as §1

[5] = tested on: bEVs from E. coli ΔtolA; settings: for koff rate constant determined by SPR / Calculated kon rate constant: E. coli ΔtolA bEVs; for koff rate constant determined by SPR: 400 s dissociation phase, Figueira et al. 2017 formalism, 25°C; for koff rate constant determined by SPR / Kd: three parallels; for Calculated kon rate constant: calculated from KD and koff (KD=koff/kon); for Kd: read-out: Dissociation constant KD determined by SPR, E. coli ΔtolA bEVs on L1 chip, Biacore T200, 25°C, 10 mM HEPES, 150 mM NaCl, steady-state fit
Source text: (§2) By this, the dissociation constant KD and the disassociation rate koff were obtained. These constants allowed us to calculate kon rate, using Eq. 4.

[6] = strain not stated; ref Junkes et al., 2008; Bagheri, 2010; Gopal et al., 2012; Finger et al., 2015; Rainsford et al., 2022; Jakubec et al., 2023; cited from earlier work
[7] = tested on: bEVs from K. pneumoniae; experiment: SPR interaction with immobilized bEVs; settings: for koff rate constant determined by SPR / Calculated kon rate constant: K. pneumoniae bEVs; for koff rate constant determined by SPR: 400 s dissociation phase, Figueira et al. 2017 formalism, 25°C; for koff rate constant determined by SPR / Kd: three parallels; for Kd: read-out: Dissociation constant KD determined by SPR, K. pneumoniae bEVs on L1 chip, Biacore T200, 25°C, 10 mM HEPES, 150 mM NaCl, steady-state fit; for Calculated kon rate constant: calculated from KD and koff (KD=koff/kon)
Source text: as §2

[8] = tested on: bEVs from A. baumannii; experiment: SPR interaction with immobilized bEVs; settings: for koff rate constant determined by SPR / Calculated kon rate constant: A. baumannii bEVs; for koff rate constant determined by SPR: 400 s dissociation phase, Figueira et al. 2017 formalism, 25°C; for koff rate constant determined by SPR / Kd: three parallels; for Kd: read-out: Dissociation constant KD determined by SPR, A. baumannii bEVs on L1 chip, Biacore T200, 25°C, 10 mM HEPES, 150 mM NaCl, steady-state fit; for Calculated kon rate constant: calculated from KD and koff (KD=koff/kon)
Source text: as §2

[9] = tested on: bEVs from P. aeruginosa; experiment: SPR interaction with immobilized bEVs; settings: for koff rate constant determined by SPR / Calculated kon rate constant: P. aeruginosa bEVs; for koff rate constant determined by SPR: 400 s dissociation phase, Figueira et al. 2017 formalism, 25°C; for koff rate constant determined by SPR / Kd: three parallels; for Kd: read-out: Dissociation constant KD determined by SPR, P. aeruginosa bEVs on L1 chip, Biacore T200, 25°C, 10 mM HEPES, 150 mM NaCl, steady-state fit; for Calculated kon rate constant: calculated from KD and koff (KD=koff/kon)
Source text: as §2

[10] = tested on: liposomes prepared from E. coli ΔtolA lipid isolate; experiment: SPR interaction with immobilized liposomes; settings: for koff rate constant determined by SPR / Calculated kon rate constant: Liposomes from E. coli ΔtolA lipid isolate; for koff rate constant determined by SPR: 400 s dissociation phase, Figueira et al. 2017 formalism, 25°C; for koff rate constant determined by SPR / Kd: three parallels; for Calculated kon rate constant: calculated from KD and koff (KD=koff/kon); for Kd: read-out: Dissociation constant KD determined by SPR, Liposomes from E. coli ΔtolA lipid isolate on L1 chip, Biacore T200, 25°C, 10 mM HEPES, 150 mM NaCl, steady-state fit
Source text: as §2

[11] = K. pneumoniae K47-25, clinical multi-resistant, Mueller-Hinton broth, 256 to 2 μg/mL, 37°C, 18 h
[12] = A. baumannii K47-42, clinical multi-resistant, Mueller-Hinton broth, 256 to 2 μg/mL, 37°C, 18 h
[13] = P. aeruginosa K34-7, clinical multi-resistant, Mueller-Hinton broth, 256 to 2 μg/mL, 37°C, 18 h

| SMILES | MIC [1] | MIC [2, 11] | MIC [3, 12] | koff rate constant determined by SPR [5] | Calculated kon rate constant [5] | Kd [5] | koff rate constant determined by SPR [7] | Kd [7] | koff rate constant determined by SPR [8] | Kd [8] | koff rate constant determined by SPR [9] | Kd [9] | koff rate constant determined by SPR [10] | Calculated kon rate constant [10] | Kd [10] | Calculated kon rate constant [7] | Calculated kon rate constant [8] | Calculated kon rate constant [9] | MIC ([2]; K47-25, 18 h) | MIC ([3]; K47-42, 18 h) | other results |
| --- | --- | --- | --- | --- | --- | --- | --- | --- | --- | --- | --- | --- | --- | --- | --- | --- | --- | --- | --- | --- | --- |
| CC(C)C[C@@H]1NC(=O)[C@@H](CCCNC(=N)N)NC(=O)[C@H](CCCCN)NC(=O)[C@H](CC(N)=O)NC(=O)[C@@H](Cc2c[nH]c3ccccc23)NC(=O)[C@H](Cc2c[nH]c3ccccc23)NC1=O [c-LWwNKr, reference compound] (cyclo(LW[dW]NK[dR])) | > 256 µg/mL | > 256 µg/mL | > 256 µg/mL | 1.42 ± 0.27 s⁻¹ | 3000 ± 1000 M⁻¹ s⁻¹ | 406 ± 38.1 µM | 1.75 ± 0.55 s⁻¹ | 1080 ± 49 µM | 1.72 ± 0.45 s⁻¹ | 858 ± 61.4 µM | 1.78 ± 0.54 s⁻¹ | 1040 ± 270 µM | 1.67 ± 0.45 s⁻¹ | 2000 ± 1000 M⁻¹ s⁻¹ | 966 ± 170 µM | – | – | – | – | – | MIC [4, 13]: > 256 µg/mL; MIC (without antimicrobial activity) [6]: > 256 µg/mL |
| NCCCC[C@@H]1NC(=O)[C@H](Cc2c[nH]c3ccccc23)NC(=O)[C@H](CCCCN)NC(=O)[C@H](Cc2c[nH]c3ccccc23)NC(=O)[C@H](CCCCN)NC(=O)[C@H](Cc2c[nH]c3ccccc23)NC1=O [c-WKWKWK] (cyclo(WKWKWK)) | 256 µg/mL (≈ 271 µM) | > 256 µg/mL | > 256 µg/mL | 1.42 ± 0.16 s⁻¹ | 4000 ± 1000 M⁻¹ s⁻¹ | 381 ± 22.6 µM | 1.51 ± 0.54 s⁻¹ | 694 ± 37.3 µM | 0.82 ± 0.11 s⁻¹ | 389 ± 32.5 µM | 1.52 ± 0.37 s⁻¹ | 749 ± 117 µM | 0.95 ± 0.20 s⁻¹ | 4000 ± 1000 M⁻¹ s⁻¹ | 244 ± 39.5 µM | 2000 ± 1000 M⁻¹ s⁻¹ | 2000 ± 1000 M⁻¹ s⁻¹ | 2000 ± 1000 M⁻¹ s⁻¹ | – | – | MIC [4, 13]: > 256 µg/mL |
| N=C(N)NCCC[C@@H]1NC(=O)[C@H](Cc2c[nH]c3ccccc23)NC(=O)[C@H](CCCNC(=N)N)NC(=O)[C@H](Cc2c[nH]c3ccccc23)NC(=O)[C@H](CCCNC(=N)N)NC(=O)[C@H](Cc2c[nH]c3ccccc23)NC1=O [c-WRWRWR] (cyclo(WRWRWR)) | 128 µg/mL (≈ 125 µM) | – | – | – | – | – | – | – | – | – | – | – | – | – | – | – | – | – | > 256 µg/mL | > 256 µg/mL | MIC ([4]; K34-7, 18 h): > 256 µg/mL |
| NCCCC[C@@H]1NC(=O)[C@H](CCCCN)NC(=O)[C@H](Cc2c[nH]c3ccccc23)NC(=O)[C@H](Cc2c[nH]c3ccccc23)NC(=O)[C@H](Cc2c[nH]c3ccccc23)NC(=O)[C@H](CCCCN)NC1=O [c-WWWKKK] (cyclo(WWWKKK)) | 4 µg/mL (≈ 4.24 µM) | – | – | 0.62 ± 0.05 s⁻¹ | 11000 ± 1000 M⁻¹ s⁻¹ | 56.5 ± 1 µM | 0.37 ± 0.03 s⁻¹ | 21 ± 0.7 µM | 0.63 ± 0.12 s⁻¹ | 100 ± 13.1 µM | 0.62 ± 0.07 s⁻¹ | 100 ± 4.1 µM | 0.21 ± 0.01 s⁻¹ | 7000 ± 1000 M⁻¹ s⁻¹ | 28.3 ± 4.2 µM | 18000 ± 1000 M⁻¹ s⁻¹ | 6000 ± 2000 M⁻¹ s⁻¹ | 6000 ± 1000 M⁻¹ s⁻¹ | > 256 µg/mL | > 256 µg/mL | – |
| N=C(N)NCCC[C@@H]1NC(=O)[C@H](CCCNC(=N)N)NC(=O)[C@H](Cc2c[nH]c3ccccc23)NC(=O)[C@H](Cc2c[nH]c3ccccc23)NC(=O)[C@H](Cc2c[nH]c3ccccc23)NC(=O)[C@H](CCCNC(=N)N)NC1=O [c-WWWRRR] (cyclo(WWWRRR)) | 4 µg/mL (≈ 3.89 µM) | – | – | 0.18 ± 0.02 s⁻¹ | 7000 ± 1000 M⁻¹ s⁻¹ | 27 ± 1.6 µM | 0.28 ± 0.01 s⁻¹ | 35.8 ± 1.3 µM | 0.40 ± 0.06 s⁻¹ | 48.7 ± 2.7 µM | 0.37 ± 0.04 s⁻¹ | 59 ± 2.6 µM | 0.51 ± 0.08 s⁻¹ | 11000 ± 1000 M⁻¹ s⁻¹ | 47.8 ± 5.2 µM | 8000 ± 1000 M⁻¹ s⁻¹ | 8000 ± 2000 M⁻¹ s⁻¹ | 6000 ± 1000 M⁻¹ s⁻¹ | 256 µg/mL (≈ 249 µM) | > 256 µg/mL | – |

Source: publication PMC10751319, “Bacterial extracellular vesicles: towards realistic models for bacterial membranes in molecular interaction studies by surface plasmon resonance” (Frontiers in Molecular Biosciences, 2023)
